The numbers were not newly measured in patent EP0387265B1, “USE OF 5-AMINOSALICYCLIC ACID (5-ASA) FOR THE PRODUCTION OF A PHARMACEUTICAL PREPARATION FOR USE IN REPERFUSION TREATMENT” (priority 1987, dated 1989), which cites them from elsewhere.

Read-outs that look alike come from different tables or passages of the source.

The test system of one series is colitis ulcerosa. Conditions: in vivo.
For series [1], the system named is reperfusion ischemic injury in the gastric mucosa. Conditions: rats.
For series [2] the following is noted: rats.
For series [3] the following is noted: humans, moderate doses.
For series [4] the following is noted: capable of neutralizing the toxic properties of the free radicals of oxygen; 'in contrast to' means not a radical scavenger.
For series [5] the following is noted: in vivo.
The conditions of series [6]: 250 mg intravenously, humans having normal coagulation.
For series [7] the following is noted: 100 or 250 mg intravenously, 6 normal test humans.
For series [8], the system named is acute myocardial ischemia and reperfusion injuries. The settings on record: dogs; MPG together with neutrophilic antiserum; compared to a control group which received non-immune serum.

Turning to `O=C([O-])c1ccccc1O.[Na+]` [sodium salicylate], the “effect against colitis ulcerosa” value in the series with colitis ulcerosa is given as “no effect”.
For `Nc1ccc(S(=O)(=O)Nc2ccccn2)cc1` [sulfapyridine], in series [1], the “protection against reperfusion ischemic injury in the gastric mucosa” value is listed as “not”.
In the case of `CC(=O)Oc1ccccc1C(=O)O` [acetylsalicylic acid], in the series with colitis ulcerosa, the “effect against colitis ulcerosa” value was “no effect”.
`Nc1ccc(O)c(C(=O)O)c1` [5-ASA, 5-aminosalicylic acid]: the nephrotoxic effect entry in series [2] is recorded as “nephrotoxic effect has been demonstrated”. Moreover, the nephrotoxic effect result in [3] is “does not have any noticeable nephrotoxic effect”. Moreover, the radical scavenger result in series [4] was “is a radical scavenger”. Also, in [5], the side effects entry is “No side effects have been observed which can be related to the substance with certainty”. In addition, in series [6], the effect of fibrinolysis entry is given as “has not been found to result in any effect” and the “effect of the thrombocyte function” value is “has not been found to result in any effect”. In series [1], the “protection against reperfusion ischemic injury in the gastric mucosa” value was “offers protection”. Further, in series [7], the distribution volume was 0.4 L/kg and the half-life is 35 min.
Take `CC(S)C(=O)NCC(=O)O` (stereo not shown) [MPG, N-2-mercaptopropionyl glycine]: the “reduced the infarct size” value in [8] is 63%.
